Laboratory results published in patent publication US20060069132A1, “Azolecarboxamide herbicides” (priority 2004, published 2006).

Legend:
redroot pigweed = test: Test A pre-/postemergence herbicide test; assay type: in vivo, Amaranthus retroflexus
Method in brief: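 Plants are held in greenhouse about ten days after treatment, then compared with untreated controls and scored 0 (no effect) to 100 (complete control). Preemergence dosing is a directed soil spray on sown sandy loam; postemergence dosing is spray to runoff at 2–10 cm height.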

bermudagrass = test: Test C pre-/postemergence herbicide test; assay type: in vivo, Cynodon dactylon; conditions: for Bermudagrass plant response rating: 500 g ai/ha
Method in brief: (§1)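 Greenhouse-grown plants were evaluated visually 12 to 14 days after treatment, with 100 meaning complete control and 0 no effect. Application was preemergence, or postemergence at 2 to 18 cm.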

morningglory = test: Test C pre-/postemergence herbicide test; assay type: in vivo, Ipomoea coccinea; design: key to Plant response rating, Morningglory: 0 = no effect, 100 = complete control
Method in brief: as §1

cocklebur = test: Test B pre-/postemergence herbicide test; assay type: in vivo, Xanthium strumarium; conditions: for Cocklebur plant response rating (0 to 100 scale): 0 = no effect, 100 = complete control; for Cocklebur plant response rating (0 to 100 scale) / Plant response rating, Cocklebur: preemergence; for Plant response rating, Cocklebur: visual rating 0-100, 0 no effect, 100 complete control; for Cocklebur plant response rating: postemergence, visual rating, scale 0 (no effect) to 100 (complete control)
Method in brief: (§2)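 Flooded paddy rice and barnyardgrass were treated at the 2-leaf stage; upland plantings received compound either on sown seed or on 1- to 4-leaf seedlings. All were kept 13–15 days in a greenhouse and scored visually, 0–100, relative to untreated plants.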

pigweed = test: Test C pre-/postemergence herbicide test; assay type: in vivo, Amaranthus retroflexus
Method in brief: as §1

barnyardgrass = test: Test B pre-/postemergence herbicide test; assay type: in vivo, Echinochloa crus-galli; conditions: for Barnyardgrass plant response rating (0 to 100 scale): 0 = no effect, 100 = complete control; for Barnyardgrass plant response rating (0 to 100 scale) / Plant response rating, Barnyardgrass: preemergence; for Plant response rating, Barnyardgrass: visual rating 0-100, 0 no effect, 100 complete control; for Barnyardgrass plant response rating: postemergence, visual rating, scale 0 (no effect) to 100 (complete control)
Method in brief: as §2

Surinam grass = test: Test C pre-/postemergence herbicide test; assay type: in vivo, Urochloa decumbens
Method in brief: as §1

[1] = Postemergence, 500 g ai/ha, 0 to 100 scale, 0 no effect, 100 complete control
[2] = Postemergence, 2000 g ai/ha, 0 to 100 scale, 0 no effect, 100 complete control
[3] = Preemergence, 2000 g ai/ha, visual rating, 0 to 100 scale (0 no effect, 100 complete control)
[4] = preemergence, 500 g ai/ha, visual injury, 0 to 100 scale (0 no effect, 100 complete control)
[5] = 62 g ai/ha, preemergence, scale 0 to 100, 0 no effect, 100 complete control
[6] = 125 g ai/ha, scale 0 (no effect) to 100 (complete control), visual, 12 to 14 days, preemergence
[7] = 250 g ai/ha, scale 0-100, preemergence
[8] = Preemergence, scale 0 to 100, 0 no effect, 100 complete control
[9] = Preemergence, 500 g ai/ha, scale 0 to 100, 0 no effect, 100 complete control
[10] = 62 g ai/ha, preemergence, scale 0 to 100
[11] = Postemergence, 250 g ai/ha, scale 0 to 100, 0 no effect, 100 complete control
[12] = postemergence, 125 g ai/ha, scale 0 to 100
[13] = postemergence, 62 g ai/ha, scale 0 to 100
[14] = 500 g ai/ha, scale 0 to 100 (0 no effect, 100 complete control), visual, 12 to 14 days, preemergence
[15] = Postemergence, 500 g ai/ha, scale 0 to 100

CCN(CC)C(=O)c1cccc(NC(=O)c2sc(C(C)(C)C)nc2C)c1 [Compound 199]
Pigweed plant response rating (redroot pigweed; [1]): 80
Plant response rating, Pigweed (redroot pigweed; [2]): 80
Pigweed plant response rating (redroot pigweed; [3]): 100
Pigweed plant response rating (redroot pigweed; [4]): 100
Plant response rating, Bermudagrass (bermudagrass; [5]): 55
Plant response rating, Bermudagrass (bermudagrass; [6]): 85
Plant response rating, Bermudagrass (bermudagrass; [7]): 100
Bermudagrass plant response rating (bermudagrass; [8]): 100
Plant response rating, Morningglory (morningglory; [6]): 50
Plant response rating, Morningglory (morningglory; [7]): 70
Morningglory plant response rating (morningglory; [9]): 70
Cocklebur plant response rating (0 to 100 scale) (cocklebur; 125 g ai/ha): 0
Plant response rating, Cocklebur (cocklebur; 500 g ai/ha): 0
Cocklebur plant response rating (cocklebur; 125 g ai/ha): 10
Cocklebur plant response rating (cocklebur; 500 g ai/ha): 60
Plant response rating, Pigweed (pigweed; [10]): 100
Plant response rating, Pigweed (pigweed; [6]): 100
Plant response rating, Pigweed (pigweed; [7]): 100
Pigweed plant response rating (pigweed; [9]): 100
Barnyardgrass plant response rating (0 to 100 scale) (barnyardgrass; 125 g ai/ha): 20
Plant response rating, Barnyardgrass (barnyardgrass; 500 g ai/ha): 90
Barnyardgrass plant response rating (barnyardgrass; 125 g ai/ha): 0
Barnyardgrass plant response rating (barnyardgrass; 500 g ai/ha): 10
Plant response rating, Surinam Grass (Surinam grass; [10]): 0
Plant response rating, Surinam Grass (Surinam grass; [6]): 0
Plant response rating, Surinam Grass (Surinam grass; [7]): 30
Surinam Grass plant response rating (Surinam grass; [9]): 75

CCc1nc(C(C)(C)C)sc1C(=O)Nc1cccc(C(=O)N(CC)CC)c1 [Compound 205]
Pigweed plant response rating (redroot pigweed; [1]): 50
Plant response rating, Pigweed (redroot pigweed; [2]): 65
Pigweed plant response rating (redroot pigweed; [3]): 100
Pigweed plant response rating (redroot pigweed; [4]): 100
Plant response rating, Bermudagrass (bermudagrass; [5]): 90
Plant response rating, Bermudagrass (bermudagrass; [6]): 100
Plant response rating, Bermudagrass (bermudagrass; [7]): 100
Bermudagrass plant response rating (bermudagrass; [8]): 100
Plant response rating, Morningglory (morningglory; [10]): 0
Plant response rating, Morningglory (morningglory; [6]): 0
Plant response rating, Morningglory (morningglory; [7]): 10
Morningglory plant response rating (morningglory; [9]): 50
Cocklebur plant response rating (0 to 100 scale) (cocklebur; 125 g ai/ha): 10
Plant response rating, Cocklebur (cocklebur; 500 g ai/ha): 20
Cocklebur plant response rating (cocklebur; 125 g ai/ha): 40
Cocklebur plant response rating (cocklebur; 500 g ai/ha): 80
Plant response rating, Pigweed (pigweed; [10]): 90
Plant response rating, Pigweed (pigweed; [6]): 95
Plant response rating, Pigweed (pigweed; [7]): 95
Pigweed plant response rating (pigweed; [9]): 100
Barnyardgrass plant response rating (0 to 100 scale) (barnyardgrass; 125 g ai/ha): 50
Plant response rating, Barnyardgrass (barnyardgrass; 500 g ai/ha): 90
Barnyardgrass plant response rating (barnyardgrass; 125 g ai/ha): 10
Barnyardgrass plant response rating (barnyardgrass; 500 g ai/ha): 20
Plant response rating, Surinam Grass (Surinam grass; [10]): 0
Plant response rating, Surinam Grass (Surinam grass; [6]): 20
Plant response rating, Surinam Grass (Surinam grass; [7]): 50
Surinam Grass plant response rating (Surinam grass; [9]): 85

CCc1nc(C(C)(C)C)sc1C(=O)Nc1cccc(C(=O)NCC2CC2)c1 [Compound 212]
Pigweed plant response rating (redroot pigweed; [1]): 75
Plant response rating, Pigweed (redroot pigweed; [2]): 90
Pigweed plant response rating (redroot pigweed; [3]): 100
Pigweed plant response rating (redroot pigweed; [4]): 100
Plant response rating, Bermudagrass (bermudagrass; [5]): 60
Plant response rating, Bermudagrass (bermudagrass; [6]): 75
Plant response rating, Bermudagrass (bermudagrass; [7]): 80
Bermudagrass plant response rating (bermudagrass; Postemergence, scale 0 to 100): 50
Plant response rating, Bermudagrass (bermudagrass; [11]): 10
Bermudagrass plant response rating (bermudagrass; [8]): 100
Plant response rating, Bermudagrass (bermudagrass; [12]): 0
Plant response rating, Bermudagrass (bermudagrass; [13]): 0
Plant response rating, Morningglory (morningglory; [10]): 0
Plant response rating, Morningglory (morningglory; [6]): 0
Plant response rating, Morningglory (morningglory; [7]): 5
Plant response rating, Morningglory (morningglory; [14]): 30
Morningglory plant response rating (morningglory; [15]): 70
Plant response rating, Morningglory (morningglory; [11]): 70
Plant response rating, Morningglory (morningglory; [12]): 10
Plant response rating, Morningglory (morningglory; [13]): 10
Cocklebur plant response rating (0 to 100 scale) (cocklebur; 125 g ai/ha): 0
Plant response rating, Cocklebur (cocklebur; 500 g ai/ha): 50
Cocklebur plant response rating (cocklebur; 125 g ai/ha): 80
Cocklebur plant response rating (cocklebur; 500 g ai/ha): 90
Plant response rating, Pigweed (pigweed; [10]): 100
Plant response rating, Pigweed (pigweed; [6]): 100
Plant response rating, Pigweed (pigweed; [7]): 100
Plant response rating, Pigweed (pigweed; [14]): 100
Pigweed plant response rating (pigweed; [15]): 90
Plant response rating, Pigweed (pigweed; [11]): 70
Plant response rating, Pigweed (pigweed; [13]): 50
Barnyardgrass plant response rating (0 to 100 scale) (barnyardgrass; 125 g ai/ha): 80
Plant response rating, Barnyardgrass (barnyardgrass; 500 g ai/ha): 90
Barnyardgrass plant response rating (barnyardgrass; 125 g ai/ha): 10
Barnyardgrass plant response rating (barnyardgrass; 500 g ai/ha): 20
Plant response rating, Surinam Grass (Surinam grass; [10]): 0
Plant response rating, Surinam Grass (Surinam grass; [6]): 0
Plant response rating, Surinam Grass (Surinam grass; [7]): 5
Plant response rating, Surinam Grass (Surinam grass; [14]): 20
Surinam Grass plant response rating (Surinam grass; [15]): 50
Plant response rating, Surinam Grass (Surinam grass; [11]): 20
Plant response rating, Surinam Grass (Surinam grass; [12]): 5
Plant response rating, Surinam Grass (Surinam grass; [13]): 0
